Assay results published in paper PMC11314561, “Design and Synthesis of Novel Aminoindazole-pyrrolo[2,3-b]pyridine Inhibitors of IKKα That Selectively Perturb Cellular Non-Canonical NF-κB Signalling” (Molecules, 2024).

Experiments:
Test in all cases: kinase panel
Format in all cases: biochemical
[1] = target: Pim-1(h) (Homo sapiens, UniProt P11309)
How it was run: (§1)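 Percentage inhibition was recorded for each compound against a broad kinase panel of 231 enzymes. Because of its close structural resemblance to another analogue, one compound was screened against 98 chosen kinases.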

[2] = target: FGFR3(h) (Homo sapiens, UniProt P22607)
How it was run: as §1

[3] = target: IR(h) (Homo sapiens, UniProt P06213)
How it was run: as §1

[4] = target: Flt1(h) (Homo sapiens, UniProt P17948)
How it was run: as §1

[5] = target: PKCη(h) (Homo sapiens, UniProt P24723)
How it was run: as §1

[6] = target: AMPKα1(h) (Homo sapiens, UniProt Q13131)
How it was run: as §1

[7] = target: PDGFRβ(h) (Homo sapiens, UniProt P09619)
How it was run: as §1

[8] = target: FGFR1(h) (Homo sapiens, UniProt P11362)
How it was run: as §1

[9] = target: T1, EphA1(h) (Homo sapiens, UniProt P21709)
T1 sequence (P21709 26-976): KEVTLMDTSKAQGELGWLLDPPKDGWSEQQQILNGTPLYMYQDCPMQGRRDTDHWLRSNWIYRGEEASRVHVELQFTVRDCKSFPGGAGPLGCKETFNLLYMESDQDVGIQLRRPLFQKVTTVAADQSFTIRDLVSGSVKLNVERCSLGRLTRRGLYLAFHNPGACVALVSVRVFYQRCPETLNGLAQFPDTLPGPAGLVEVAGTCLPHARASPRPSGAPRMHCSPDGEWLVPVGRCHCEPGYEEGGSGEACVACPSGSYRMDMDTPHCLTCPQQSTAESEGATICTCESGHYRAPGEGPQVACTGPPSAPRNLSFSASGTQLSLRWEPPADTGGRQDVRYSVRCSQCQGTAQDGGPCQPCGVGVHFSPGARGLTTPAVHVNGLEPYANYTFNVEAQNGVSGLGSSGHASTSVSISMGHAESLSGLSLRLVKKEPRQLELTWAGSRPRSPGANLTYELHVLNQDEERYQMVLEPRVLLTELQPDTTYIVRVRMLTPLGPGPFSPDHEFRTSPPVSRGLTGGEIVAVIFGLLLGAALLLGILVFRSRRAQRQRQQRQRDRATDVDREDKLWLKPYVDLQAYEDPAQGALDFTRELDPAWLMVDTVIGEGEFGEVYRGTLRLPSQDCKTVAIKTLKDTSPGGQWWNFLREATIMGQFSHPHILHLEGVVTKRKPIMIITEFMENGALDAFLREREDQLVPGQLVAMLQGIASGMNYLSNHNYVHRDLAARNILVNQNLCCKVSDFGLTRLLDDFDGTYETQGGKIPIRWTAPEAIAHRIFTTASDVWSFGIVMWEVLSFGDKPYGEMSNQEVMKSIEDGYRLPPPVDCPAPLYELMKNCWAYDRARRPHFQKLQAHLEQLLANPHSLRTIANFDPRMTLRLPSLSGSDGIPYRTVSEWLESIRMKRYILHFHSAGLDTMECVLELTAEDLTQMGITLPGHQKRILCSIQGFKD
How it was run: as §1

[10] = target: Arg(h) (Homo sapiens, UniProt P42684)
How it was run: as §1

[11] = target: GSK3α(h) (Homo sapiens, UniProt P49840)
How it was run: as §1

[12] = target: ROCK-II(h) (Homo sapiens, UniProt O75116)
How it was run: as §1

[13] = target: DAPK1(h) (Homo sapiens, UniProt P53355)
How it was run: as §1

[14] = target: cSRC(h) (Homo sapiens, UniProt P12931)
How it was run: as §1

[15] = target: KDR(h) (Homo sapiens, UniProt P35968)
How it was run: as §1

[16] = target: ROCK-I(h) (Homo sapiens, UniProt Q13464)
How it was run: as §1

[17] = target: Syk(h) (Homo sapiens, UniProt P43405)
How it was run: as §1

[18] = target: JNK1α1(h) (Homo sapiens, UniProt P45983)
How it was run: as §1

[19] = target: ACK1(h) (Homo sapiens, UniProt Q07912)
How it was run: as §1

[20] = target: T2, TBK1(h) (Homo sapiens, UniProt Q9UHD2)
T2 sequence (Q9UHD2 1-729): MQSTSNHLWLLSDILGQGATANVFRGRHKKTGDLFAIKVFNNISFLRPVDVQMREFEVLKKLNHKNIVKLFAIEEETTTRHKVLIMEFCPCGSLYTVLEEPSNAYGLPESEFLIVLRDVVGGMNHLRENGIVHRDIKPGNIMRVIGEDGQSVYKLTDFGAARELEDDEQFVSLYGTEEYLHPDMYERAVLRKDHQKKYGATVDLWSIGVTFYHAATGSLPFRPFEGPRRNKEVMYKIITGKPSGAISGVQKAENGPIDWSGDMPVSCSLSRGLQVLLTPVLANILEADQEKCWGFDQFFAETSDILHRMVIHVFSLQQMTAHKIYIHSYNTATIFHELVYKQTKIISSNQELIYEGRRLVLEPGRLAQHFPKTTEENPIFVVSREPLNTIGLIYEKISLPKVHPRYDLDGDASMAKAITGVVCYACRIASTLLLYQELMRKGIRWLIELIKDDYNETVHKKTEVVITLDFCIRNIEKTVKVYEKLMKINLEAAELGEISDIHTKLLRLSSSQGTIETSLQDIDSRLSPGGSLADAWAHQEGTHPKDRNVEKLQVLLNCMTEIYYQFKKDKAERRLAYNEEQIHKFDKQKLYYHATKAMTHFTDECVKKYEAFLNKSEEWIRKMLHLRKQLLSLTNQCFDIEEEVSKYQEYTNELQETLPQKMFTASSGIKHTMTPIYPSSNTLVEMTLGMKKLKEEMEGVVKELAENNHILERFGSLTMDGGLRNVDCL
How it was run: as §1

Chain of DAPK1(h) (P53355 whole entry): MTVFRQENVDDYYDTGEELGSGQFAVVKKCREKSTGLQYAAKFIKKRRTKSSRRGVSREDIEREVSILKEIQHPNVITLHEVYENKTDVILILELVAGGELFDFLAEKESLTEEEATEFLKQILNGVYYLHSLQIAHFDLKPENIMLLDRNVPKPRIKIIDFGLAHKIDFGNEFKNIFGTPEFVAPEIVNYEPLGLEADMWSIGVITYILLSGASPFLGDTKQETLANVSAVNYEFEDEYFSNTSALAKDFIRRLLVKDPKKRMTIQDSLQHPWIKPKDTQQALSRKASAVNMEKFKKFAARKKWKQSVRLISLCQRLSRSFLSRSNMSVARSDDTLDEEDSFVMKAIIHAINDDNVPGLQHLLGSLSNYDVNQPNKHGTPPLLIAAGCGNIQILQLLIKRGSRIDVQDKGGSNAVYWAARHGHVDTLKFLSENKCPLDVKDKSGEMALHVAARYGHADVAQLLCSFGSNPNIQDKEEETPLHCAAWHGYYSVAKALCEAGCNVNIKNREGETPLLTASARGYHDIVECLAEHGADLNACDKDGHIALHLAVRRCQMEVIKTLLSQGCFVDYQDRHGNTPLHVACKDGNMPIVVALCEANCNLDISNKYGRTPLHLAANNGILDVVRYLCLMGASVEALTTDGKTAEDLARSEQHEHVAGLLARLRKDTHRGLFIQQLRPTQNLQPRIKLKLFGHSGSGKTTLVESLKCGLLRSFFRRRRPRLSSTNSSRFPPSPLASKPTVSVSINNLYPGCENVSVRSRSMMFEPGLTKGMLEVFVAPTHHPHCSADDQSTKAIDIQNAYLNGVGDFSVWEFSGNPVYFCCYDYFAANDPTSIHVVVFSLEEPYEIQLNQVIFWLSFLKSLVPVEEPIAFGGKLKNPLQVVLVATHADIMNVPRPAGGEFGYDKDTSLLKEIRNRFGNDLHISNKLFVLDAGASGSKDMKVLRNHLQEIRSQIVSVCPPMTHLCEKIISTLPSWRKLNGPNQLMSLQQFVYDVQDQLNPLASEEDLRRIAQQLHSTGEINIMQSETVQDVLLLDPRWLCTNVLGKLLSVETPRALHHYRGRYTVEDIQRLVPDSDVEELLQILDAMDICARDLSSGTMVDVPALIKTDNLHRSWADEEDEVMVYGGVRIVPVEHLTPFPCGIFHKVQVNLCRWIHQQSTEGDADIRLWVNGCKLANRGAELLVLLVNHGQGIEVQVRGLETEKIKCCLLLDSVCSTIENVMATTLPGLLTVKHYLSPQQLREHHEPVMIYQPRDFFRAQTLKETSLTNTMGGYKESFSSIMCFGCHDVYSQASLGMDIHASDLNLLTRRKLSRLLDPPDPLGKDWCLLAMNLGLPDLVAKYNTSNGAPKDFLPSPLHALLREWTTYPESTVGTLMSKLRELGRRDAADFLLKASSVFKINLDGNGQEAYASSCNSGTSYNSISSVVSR
Chain of Flt1(h) (P17948 27-1338): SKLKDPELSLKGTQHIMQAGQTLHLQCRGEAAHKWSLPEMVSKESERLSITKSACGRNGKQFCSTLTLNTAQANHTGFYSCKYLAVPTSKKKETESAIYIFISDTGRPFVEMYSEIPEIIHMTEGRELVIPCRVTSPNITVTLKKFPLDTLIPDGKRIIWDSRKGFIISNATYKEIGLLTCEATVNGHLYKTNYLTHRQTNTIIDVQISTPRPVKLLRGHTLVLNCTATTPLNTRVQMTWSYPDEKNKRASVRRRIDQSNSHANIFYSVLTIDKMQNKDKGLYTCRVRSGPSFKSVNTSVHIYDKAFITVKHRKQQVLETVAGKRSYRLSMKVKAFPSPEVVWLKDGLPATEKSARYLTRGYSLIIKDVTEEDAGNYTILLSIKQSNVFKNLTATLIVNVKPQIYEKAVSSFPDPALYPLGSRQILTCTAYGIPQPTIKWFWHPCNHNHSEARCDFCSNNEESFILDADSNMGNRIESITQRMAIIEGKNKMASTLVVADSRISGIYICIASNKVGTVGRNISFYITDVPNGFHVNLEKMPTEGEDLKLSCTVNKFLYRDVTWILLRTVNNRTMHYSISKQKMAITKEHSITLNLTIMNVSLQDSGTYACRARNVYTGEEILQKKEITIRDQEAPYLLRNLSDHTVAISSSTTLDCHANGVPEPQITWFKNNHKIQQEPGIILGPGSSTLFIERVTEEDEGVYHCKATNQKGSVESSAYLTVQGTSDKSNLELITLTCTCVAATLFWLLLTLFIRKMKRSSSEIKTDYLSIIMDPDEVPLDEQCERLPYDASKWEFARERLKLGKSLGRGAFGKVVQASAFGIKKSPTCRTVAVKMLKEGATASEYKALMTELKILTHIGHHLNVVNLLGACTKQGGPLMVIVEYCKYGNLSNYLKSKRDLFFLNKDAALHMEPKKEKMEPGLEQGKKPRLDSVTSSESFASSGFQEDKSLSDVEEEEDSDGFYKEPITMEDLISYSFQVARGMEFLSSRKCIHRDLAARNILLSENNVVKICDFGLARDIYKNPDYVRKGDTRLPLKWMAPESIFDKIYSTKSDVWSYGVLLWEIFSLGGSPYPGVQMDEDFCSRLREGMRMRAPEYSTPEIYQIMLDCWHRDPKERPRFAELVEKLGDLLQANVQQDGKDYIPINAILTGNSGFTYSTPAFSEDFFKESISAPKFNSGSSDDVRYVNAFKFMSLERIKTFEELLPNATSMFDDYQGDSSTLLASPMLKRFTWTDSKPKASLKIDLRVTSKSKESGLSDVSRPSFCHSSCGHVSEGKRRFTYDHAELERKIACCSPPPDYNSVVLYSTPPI
Chain of FGFR3(h) (P22607 23-806): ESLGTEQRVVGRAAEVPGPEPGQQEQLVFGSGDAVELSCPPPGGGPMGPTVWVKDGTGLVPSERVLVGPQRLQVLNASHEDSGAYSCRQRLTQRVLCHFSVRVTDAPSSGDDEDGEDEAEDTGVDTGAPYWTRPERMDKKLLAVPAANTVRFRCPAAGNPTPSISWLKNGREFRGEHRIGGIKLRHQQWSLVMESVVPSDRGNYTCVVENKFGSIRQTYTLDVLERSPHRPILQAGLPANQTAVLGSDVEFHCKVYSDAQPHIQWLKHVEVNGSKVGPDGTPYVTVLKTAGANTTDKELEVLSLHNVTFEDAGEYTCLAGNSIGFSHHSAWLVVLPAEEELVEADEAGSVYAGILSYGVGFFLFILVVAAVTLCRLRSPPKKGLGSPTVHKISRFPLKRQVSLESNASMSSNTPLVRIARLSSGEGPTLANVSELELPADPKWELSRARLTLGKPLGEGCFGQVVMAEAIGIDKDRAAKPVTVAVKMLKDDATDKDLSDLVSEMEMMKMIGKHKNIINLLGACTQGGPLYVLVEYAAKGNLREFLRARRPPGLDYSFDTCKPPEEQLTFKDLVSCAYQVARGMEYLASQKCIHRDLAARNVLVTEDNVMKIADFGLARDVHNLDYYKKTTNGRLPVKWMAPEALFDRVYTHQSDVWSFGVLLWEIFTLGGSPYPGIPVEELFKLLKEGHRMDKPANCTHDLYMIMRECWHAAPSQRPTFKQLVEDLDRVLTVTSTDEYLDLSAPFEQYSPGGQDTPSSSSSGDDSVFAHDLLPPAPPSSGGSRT
Chain of ROCK-II(h) (O75116 whole entry): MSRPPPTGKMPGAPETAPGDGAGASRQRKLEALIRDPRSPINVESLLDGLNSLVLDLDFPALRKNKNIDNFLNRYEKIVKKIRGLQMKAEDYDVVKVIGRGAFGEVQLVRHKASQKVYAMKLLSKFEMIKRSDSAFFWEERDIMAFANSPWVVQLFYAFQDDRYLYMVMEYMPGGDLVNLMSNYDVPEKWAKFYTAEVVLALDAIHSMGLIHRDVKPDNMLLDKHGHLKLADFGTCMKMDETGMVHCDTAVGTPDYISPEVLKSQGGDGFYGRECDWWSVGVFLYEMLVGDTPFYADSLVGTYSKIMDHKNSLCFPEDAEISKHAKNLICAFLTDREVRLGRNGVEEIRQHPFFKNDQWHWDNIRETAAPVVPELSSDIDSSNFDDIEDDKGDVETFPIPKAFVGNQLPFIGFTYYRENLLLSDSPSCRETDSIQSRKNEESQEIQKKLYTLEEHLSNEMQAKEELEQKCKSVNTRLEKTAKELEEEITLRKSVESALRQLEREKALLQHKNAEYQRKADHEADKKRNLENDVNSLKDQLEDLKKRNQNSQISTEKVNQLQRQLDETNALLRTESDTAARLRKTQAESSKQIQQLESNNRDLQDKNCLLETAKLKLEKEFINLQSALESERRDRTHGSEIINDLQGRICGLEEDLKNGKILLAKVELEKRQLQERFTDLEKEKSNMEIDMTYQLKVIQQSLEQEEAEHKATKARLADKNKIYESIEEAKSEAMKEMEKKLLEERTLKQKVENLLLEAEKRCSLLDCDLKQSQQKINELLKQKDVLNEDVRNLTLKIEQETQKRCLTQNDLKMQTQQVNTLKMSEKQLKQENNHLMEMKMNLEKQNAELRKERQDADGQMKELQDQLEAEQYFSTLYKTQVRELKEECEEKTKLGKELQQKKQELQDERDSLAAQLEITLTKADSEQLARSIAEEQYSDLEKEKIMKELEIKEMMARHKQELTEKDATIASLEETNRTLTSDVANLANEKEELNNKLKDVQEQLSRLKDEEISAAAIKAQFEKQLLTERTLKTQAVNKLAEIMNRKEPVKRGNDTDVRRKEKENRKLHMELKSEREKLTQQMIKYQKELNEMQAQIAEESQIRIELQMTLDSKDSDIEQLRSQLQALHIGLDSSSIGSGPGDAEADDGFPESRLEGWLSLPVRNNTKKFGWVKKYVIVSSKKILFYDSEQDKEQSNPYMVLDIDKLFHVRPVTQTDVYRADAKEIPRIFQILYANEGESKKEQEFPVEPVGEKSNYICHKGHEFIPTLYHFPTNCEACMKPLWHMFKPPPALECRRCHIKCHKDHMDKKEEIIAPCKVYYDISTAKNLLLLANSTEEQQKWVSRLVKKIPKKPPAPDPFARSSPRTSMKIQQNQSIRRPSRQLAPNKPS

Compound | inhibition at 1 µM [1] [%] | inhibition at 1 µM [2] [%] | inhibition at 1 µM [3] [%] | inhibition at 1 µM [4] [%] | inhibition at 1 µM [5] [%] | inhibition at 1 µM [6] [%] | inhibition at 1 µM [7] [%] | inhibition at 1 µM [8] [%] | inhibition at 1 µM [9] [%] | inhibition at 1 µM [10] [%] | inhibition at 1 µM [11] [%] | inhibition at 1 µM [12] [%] | inhibition at 1 µM [13] [%] | inhibition at 1 µM [14] [%] | inhibition at 1 µM [15] [%] | inhibition at 1 µM [16] [%] | inhibition at 1 µM [17] [%] | inhibition at 1 µM [18] [%] | inhibition at 1 µM [19] [%] | inhibition at 1 µM [20] [%]
Nc1n[nH]c2ccc(-c3ccnc4[nH]c(-c5cccc(OCc6ccccc6)c5)cc34)cc12 [Compound 5r [SU1261]] | -1 | 41 | 4 | 58 | 2 | -7 | 1 | 64 | 24 | 76 | 74 | 58 | -15 | 26 | 42 | 28 | 32 | 12 | 41 | 22
Nc1n[nH]c2ccc(-c3ccnc4[nH]c(-c5ccnc(OCc6ccccc6)c5)cc34)cc12 [Compound 6g [SU1349]] | 8 | 0 | -1 | 6 | -1 | -5 | -14 | -4 | -7 | 24 | 27 | 25 | 4 | -28 | 26 | 10 | 25 | 25 | 17 | 2
Nc1n[nH]c2ccc(-c3ccnc4[nH]c(-c5ccccc5)cc34)cc12 [Compound 4] | 23 | 77 | 50 | 94 | 2 | 23 | 14 | 84 | 87 | 96 | 95 | 89 | -1 | 42 | 93 | 13 | 77 | 80 | 83 | 81
